Patent US20100160228A1, “METHOD FOR INHIBITING OR STIMULATING ANGIOGENESIS IN AN INDIVIDUAL” (VALTION TEKNILLINEN TUTKIMUSKESKUS, priority 2007, published 2010)

Experiments:
Format in all cases: cell-based, human
VEGFR2 = VEGFR2 kinase activity from HUVEC lysates (Kinase-Glo Plus); conditions: HUVEC treated with no peptide or with scrambled control TAT peptide, FIG. 4B
Procedure: (A) Serum-starved subconfluent HUVEC were treated for 1 h with α1 integrin cytoplasmic tail fusion peptide (α1TAT) or TAT-scramble control fusion peptide (ScrTAT) (both at 200 nM) followed by VEGF-induction (100 ng/ml, 15 min) where indicated. Cell lysates were resolved on SDS-PAGE and immunoblotted for phosphorylated VEGFR2 (or tubulin as a control). (B) HUVEC were treated as in (A) and VEGFR2 kinase activity (mean±SD, n=3) was measured from the cell lysates. **, p<0.01. (C) Recombinant, purified TCPTP was incubated with α1 or α2 cytoplasmic tail peptides (L-amino acids) or with α1 and scrambled TAT peptides (D-amino acids) and analyzed for phosphatase activity (mean±SD, n=3).
VEGFR2 kinase activity was studied using Kinase-Glo Plus kinase assay kit according to manufacturer's protocol (Promega) with 25 µM ATP. Briefly, HUVEC plated on gelatin were serum-starved overnight, treated with 400 nM α1TAT or ScrTAT or left untreated and stimulated with 100 ng/ml VEGF for 15 min, when indicated. The cells were lysed to ice-cold lysis buffer (1% NP-40, 20 mM Hepes pH 7.4, 150 mM NaCl, 10% glycerol, 2.5 mM EDTA, complete protease inhibitor (Roche) and phosphatase inhibitor coctails I and II (Sigma)). The lysates were incubated in anti-VEGFR2 or control IgG-coated wells with shaking for 2 h and washed 3 times with lysis buffer and 3 times with cold kinase assay buffer (20 mM Hepes pH 8, 0.1 mM Na3VO4, 10 mM MnCl2, 1 mM DTT). Kinase assay was performed for 10 min at +37° C.

HUVEC [1] = assay: Time-lapse chemokinesis assay; conditions: HUVEC on gelatin, 4 hours time-lapse, FIG. 5B and FIG. 9
Procedure: (§1) FIG. 5. Controlled TCPTP activation inhibits VEGF-driven capillary formation, chemokinesis and chemotaxis. (A) HUVEC were cultured in fibrin gels and treated with or without VEGF and TAT peptides (200 nM). After 24 h the formation of capillary tubes was semiquantitatively scored. (B) HUVEC were plated on gelatin in the presence of the peptides (200 nM) or left untreated for 1 h. The cells were stimulated as indicated and migration of individual cells was tracked using time-lapse microscopy. Cumulative migration distance was plotted for randomly picked individual cells. (C) HUVEC were treated with 200 nM peptides and the transmigration assay was performed as in FIG. 3D. (D) HUVEC were transfected with siRNA against TCPTP or a control siRNA, and TCPTP expression was analysed with immunofluorescence. Equal exposures of TCPTP (green) and DAPI (blue) stainings are shown. 48 h post-transfection cells were subjected to transmigration assay as in […].
FIG. 9. TCPTP activation by α1-peptide inhibits VEGF induced chemokinesis. HUVEC were plated on gelatin in the presence of the peptides (200 nM) or left untreated for 1 h. The cells were stimulated as indicated and migration of individual cells was tracked using time-lapse microscopy. Representative images of individual cells overlayed with their migration patterns (different colours) at the indicated time points are shown.
Time-lapse chemokinesis assays. HUVEC were plated on gelatin-coated wells and allowed to attach for 1 h in the presence or absence of 200 nM α1TAT or ScrTAT and 20 ng/ml VEGF. Migration of individual cells was recorded at 5 min intervals for 4 h using 20× objective and digital video recording. The migration pathway of at least ten randomly picked cells was tracked using the Metamorph program. The cumulative migration distances were also plotted.

HUVEC [2] = assay: Transwell chemotaxis assay towards VEGF; conditions: vector-transfected HUVEC, FIG. 3D
Procedure: FIG. 3. TCPTP activity controls VEGF-dependent responses in endothelial cells. (A) HUVEC were transfected with the constitutively active TCPTP (TC37) or vector control (pCG), stimulated or not with VEGF, and stained for VEGFR2 (red) and nuclei (blue) after fixation and permeabilization. Arrows indicate VEGFR2 vesicles. (B) HUVEC were treated as in (A) and subjected to trypsin digestion on ice. VEGFR2 protected from trypsin (=internalized pool) was detected by immunoblotting. The intensities of VEGFR2 bands were quantified and are expressed relative to pCG-VEGF control. A representative experiment out of 2 with similar results is shown. (C) HUVEC were transfected with no oligo, siRNA against TCPTP or a control siRNA, and TCPTP expression was measured using immunoblotting. Cells were treated with 80 ng/ml VEGF and proliferation of sparse cells plated on gelatin was assayed after 16 h using BrdU-based assay (mean±SD; n=4-6; *, p<0.05). (D) HUVEC were transfected as in (A) and chemotaxis towards VEGF was measured using a Transwell assay for 4 hours. Cells adhering to the bottom of the filter were fixed and stained with crystal violet. Number of migrated cells was counted (mean±SEM, n=3).
as §1
Chemotaxis assays. HUVEC electroporated with the DNA or siRNA or non-transfected HUVEC were treated with 200 nM α1TAT, ScrTAT or left untreated for 1 h. Transwell filters (8 μm pore size, Costar, Cambridge, Mass.) were coated with gelatin and medium (RPMI, 4 mM L-glutamine, 10% FBS) and VEGF (100 ng/ml) were added to the lower chamber. Cells were harvested from the culture plates, and transferred into the Transwell inserts (4×10^5 cells/well) in RPMI with 0.2% soybean trypsin inhibitor. […] The inserts were fixed in 4% paraformaldehyde, cells stained with 0.5% crystal violet and the number of migrated cells was counted using a microscope.

With VEGF the “increase of VEGFR2 kinase activity upon VEGF-stimulation” value (VEGFR2) was “about 10 fold”, the “induction of HUVEC chemokinesis” value (HUVEC [1]) was 99±25% and the stimulation of chemotaxis (HUVEC [2]) was > 2 fold.
